{"source": "patent US20230041563A1", "about": "“N-(1,3,4-OXADIAZOL-2-YL)ARYLCARBOXAMIDES OR SALTS THEREOF, PREPARATION METHODS, HERBICIDAL COMPOSITIONS AND USES THEREOF” (priority 2018, published 2023)", "tested_on": "weeds", "experiment": "Actual control effects and combined effects of mixtures of active ingredients (i) and (ii), stem-leaf treatment, Gowing method", "format": "in vivo", "conditions": "20 days; for pest or weed control at 27 g/ha: (ii) 1.8 g a.i./mu", "method": "According to the actual control effect and the property of the herbicides, the balance of the formula and other factors, the optimal ratio was determined. In the calculation formula: X represents the fresh weight inhibition rate when the active ingredient (i) is used in an amount of P; and Y represents the fresh weight inhibition rate when the active ingredient (ii) is used in an amount of Q. The statistical results are shown in Tables 9-11 below.", "key": {"[1]": {"conditions": "Digitaria sanguinalis, (ii) 3 g a.i./mu, stem-leaf treatment"}, "[2]": {"conditions": "Echinochloa phyllopogon, (ii) 3 g a.i./mu"}, "[3]": {"conditions": "Echinochloa phyllopogon, (ii) 3 g a.i./mu, stem-leaf treatment"}, "[4]": {"conditions": "480 h, Echinochloa phyllopogon, (ii) 15 g a.i./mu, stem-leaf treatment, read-out: Control effect of (ii) alone at corresponding dose"}, "[5]": {"conditions": "Echinochloa phyllopogon, (ii) 15 g a.i./mu"}, "[6]": {"conditions": "Echinochloa phyllopogon, (ii) 0.6 g a.i./mu"}, "[7]": {"conditions": "480 h, Cyperus difformis, read-out: Control effect of (ii) alone at corresponding dose"}, "[8]": {"conditions": "480 h, Echinochloa phyllopogon, (ii) 30 g a.i./mu, read-out: Control effect of (ii) alone at corresponding dose"}, "[9]": {"conditions": "480 h, Echinochloa phyllopogon, (ii) 3 g a.i./mu, stem-leaf treatment, read-out: Control effect of (ii) alone at corresponding dose"}, "[10]": {"conditions": "Cyperus difformis, (ii) 30 g a.i./mu"}}, "note": "Read-outs that look alike come from different tables or passages of the source."}
{"smiles": "O=C1CCCC(=O)C1C(=O)c1c(Cl)ccc2cc(Cl)cnc12", "note": "[Quintrione]", "values": [{"measurement": "Control effect of (ii) alone at corresponding dose", "setting": "[1]", "result": 15.2, "unit": "%"}, {"measurement": "Control effect of (ii) alone at corresponding dose", "setting": "[2]", "result": 15.8, "unit": "%"}, {"measurement": "Control effect of (ii) alone at corresponding dose", "setting": "[3]", "result": 15.8, "unit": "%"}, {"measurement": "Control effect of (ii) alone at corresponding dose", "setting": "Echinochloa phyllopogon, (ii) 30 g a.i./mu", "result": 66.7, "unit": "%"}, {"measurement": "Control effect of (ii) alone at corresponding dose", "setting": "Echinochloa phyllopogon, (ii) 30 g a.i./mu, stem-leaf treatment", "result": 66.7, "unit": "%"}]}
{"smiles": "CCNc1nc(Cl)nc(NC(C)C)n1", "note": "[Atrazine]", "values": [{"measurement": "pest or weed control at 9 g/ha", "setting": "480 h, Echinochloa phyllopogon, (ii) 0.6 g a.i./mu, read-out: Control effect of (ii) alone at corresponding dose", "result": 2.3, "unit": "%"}, {"measurement": "pest or weed control at […]", "setting": "[4]", "result": 30.6, "unit": "%"}, {"measurement": "Control effect of (ii) alone at corresponding dose", "setting": "[5]", "result": 30.6, "unit": "%"}]}
{"smiles": "CC1=C(c2ccccc2)C(=O)N(C(C)(C)c2cc(Cl)cc(Cl)c2)CO1", "note": "[Oxaziclomefone]", "values": [{"measurement": "pest or weed control at 9 g/ha", "setting": "480 h, Echinochloa phyllopogon, (ii) 0.6 g a.i./mu, stem-leaf treatment, read-out: Control effect of (ii) alone at corresponding dose", "result": 12.5, "unit": "%"}, {"measurement": "pest or weed control at 15 g/ha", "setting": "480 h, Echinochloa phyllopogon, (ii) 1 g a.i./mu, stem-leaf treatment, read-out: Control effect of (ii) alone at corresponding dose", "result": 18.7, "unit": "%"}, {"measurement": "Control effect of (ii) alone at corresponding dose", "setting": "[6]", "result": 12.5, "unit": "%"}, {"measurement": "Control effect of (ii) alone at corresponding dose", "setting": "Echinochloa phyllopogon, (ii) 1 g a.i./mu", "result": 18.7, "unit": "%"}]}
{"smiles": "Cn1[nH]c(C2CC2)c(C(=O)c2ccc(C(F)(F)F)c(N3CCCCC3=O)c2Cl)c1=O", "note": "[Huanbifucaotong]", "values": [{"measurement": "Control effect of (ii) alone at corresponding dose", "setting": "[1]", "result": 6.2, "unit": "%"}, {"measurement": "Control effect of (ii) alone at corresponding dose", "setting": "Leptochloa chinensis, (ii) 0.5 g a.i./mu", "result": 9.2, "unit": "%"}, {"measurement": "Control effect of (ii) alone at corresponding dose", "setting": "Leptochloa chinensis, (ii) 0.5 g a.i./mu, stem-leaf treatment", "result": 9.2, "unit": "%"}, {"measurement": "Control effect of (ii) alone at corresponding dose", "setting": "Leptochloa chinensis, (ii) 15 g a.i./mu", "result": 76.2, "unit": "%"}]}
{"smiles": "CCCCCCCCSC(=O)Oc1cc(Cl)nnc1-c1ccccc1", "note": "[Pyridate]", "values": [{"measurement": "pest or weed control at 27 g/ha", "setting": "[7]", "result": 12.9, "unit": "%"}, {"measurement": "pest or weed control at […]", "setting": "480 h, Cyperus difformis, (ii) 15 g a.i./mu, stem-leaf treatment, read-out: Control effect of (ii) alone at corresponding dose", "result": 53.2, "unit": "%"}, {"measurement": "Control effect of (ii) alone at corresponding dose", "setting": "Cyperus difformis, (ii) 15 g a.i./mu", "result": 53.2, "unit": "%"}]}
{"smiles": "CCCCOCN(C(=O)CCl)c1c(CC)cccc1CC", "note": "[Butachlor]", "values": [{"measurement": "pest or weed control at […]", "setting": "[4]", "result": 19.3, "unit": "%"}, {"measurement": "pest or weed control at 450 g/ha", "setting": "[8]", "result": 39.7, "unit": "%"}, {"measurement": "Control effect of (ii) alone at corresponding dose", "setting": "[5]", "result": 19.3, "unit": "%"}]}
{"smiles": "CCSC(=O)N1CCCCCC1", "note": "[Molinate]", "values": [{"measurement": "pest or weed control at 45 g/ha", "setting": "[9]", "result": 7.8, "unit": "%"}, {"measurement": "pest or weed control at 450 g/ha", "setting": "[8]", "result": 40.6, "unit": "%"}, {"measurement": "Control effect of (ii) alone at corresponding dose", "setting": "[2]", "result": 7.8, "unit": "%"}]}
{"smiles": "CN(C(=O)COc1nc2ccccc2s1)c1ccccc1", "note": "[Mefenacet]", "values": [{"measurement": "pest or weed control at 45 g/ha", "setting": "[9]", "result": 19.2, "unit": "%"}, {"measurement": "pest or weed control at […]", "setting": "[4]", "result": 46.7, "unit": "%"}, {"measurement": "Control effect of (ii) alone at corresponding dose", "setting": "[2]", "result": 19.2, "unit": "%"}, {"measurement": "Control effect of (ii) alone at corresponding dose", "setting": "[5]", "result": 46.7, "unit": "%"}]}
{"smiles": "Cn1nc(C(F)(F)F)c(CS(=O)(=O)C2=NOC(C)(C)C2)c1OC(F)F", "note": "[Pyroxasulfone]", "values": [{"measurement": "Control effect of (ii) alone at corresponding dose", "setting": "Monochoria vaginalis, (ii) 9 g a.i./mu", "result": 34.5, "unit": "%"}, {"measurement": "pest or weed control at […]", "setting": "Pontederia vaginalis, 480 h, Monochoria vaginalis, (ii) 0.5 g a.i./mu, read-out: Control effect of (ii) alone at corresponding dose", "result": 6.3, "unit": "%"}, {"measurement": "pest or weed control at 135 g/ha", "setting": "Pontederia vaginalis, 480 h, Monochoria vaginalis, (ii) 9 g a.i./mu, stem-leaf treatment, read-out: Control effect of (ii) alone at corresponding dose", "result": 34.5, "unit": "%"}]}
{"smiles": "CCCc1ccc2nc(Cl)c(S(=O)(=O)NC(=O)Nc3nc(OC)cc(OC)n3)n2n1", "note": "[Propyrisulfuron]", "values": [{"measurement": "Control effect of (ii) alone at corresponding dose", "setting": "Cyperus difformis, (ii) 0.6 g a.i./mu", "result": 19.5, "unit": "%"}, {"measurement": "Control effect of (ii) alone at corresponding dose", "setting": "Cyperus difformis, (ii) 1.5 g a.i./mu", "result": 46.3, "unit": "%"}, {"measurement": "Control effect of (ii) alone at corresponding dose", "setting": "Cyperus difformis, (ii) 1.5 g a.i./mu, stem-leaf treatment", "result": 46.3, "unit": "%"}]}
{"smiles": "CCN(CC)C(=O)SCc1ccc(Cl)cc1", "note": "[Benthiocarb]", "values": [{"measurement": "Control effect of (ii) alone at corresponding dose", "setting": "Cyperus difformis, (ii) 3 g a.i./mu", "result": 15.2, "unit": "%"}, {"measurement": "Control effect of (ii) alone at corresponding dose", "setting": "Cyperus difformis, (ii) 3 g a.i./mu, stem-leaf treatment", "result": 15.2, "unit": "%"}, {"measurement": "Control effect of (ii) alone at corresponding dose", "setting": "[10]", "result": 50.3, "unit": "%"}]}
{"smiles": "CCC(CC)Nc1c([N+](=O)[O-])cc(C)c(C)c1[N+](=O)[O-]", "note": "[Pendimethalin]", "values": [{"measurement": "pest or weed control at 27 g/ha", "setting": "[7]", "result": 6.3, "unit": "%"}, {"measurement": "pest or weed control at 450 g/ha", "setting": "480 h, Cyperus difformis, (ii) 30 g a.i./mu, stem-leaf treatment, read-out: Control effect of (ii) alone at corresponding dose", "result": 40.3, "unit": "%"}, {"measurement": "Control effect of (ii) alone at corresponding dose", "setting": "[10]", "result": 40.3, "unit": "%"}]}
{"smiles": "COc1c(Cl)ccc(-c2nc(C(=O)OCc3ccccc3)c(Cl)c(N)c2F)c1F", "note": "[Florpyrauxifen-benzyl]", "values": [{"measurement": "Control effect of (ii) alone at corresponding dose", "setting": "[6]", "result": 21.5, "unit": "%"}, {"measurement": "Control effect of (ii) alone at corresponding dose", "setting": "Echinochloa phyllopogon, (ii) 0.6 g a.i./mu, stem-leaf treatment", "result": 21.5, "unit": "%"}, {"measurement": "Control effect of (ii) alone at corresponding dose", "setting": "[2]", "result": 70.5, "unit": "%"}, {"measurement": "Control effect of (ii) alone at corresponding dose", "setting": "[3]", "result": 70.5, "unit": "%"}]}
